Measured values: ChEMBL document CHEMBL1131085, “Structure-activity relationships for a series of bis(phenylalkyl)amines: potent subtype-selective inhibitors of N-methyl-D-aspartate receptors” (J Med Chem, 1998)

Legend:
Format in all cases: cell-based, Oocyte
[1] = target: Glutamate NMDA receptor; Grin1/Grin2a (Rattus norvegicus, UniProt P35439+Q00959); test: Functional antagonism by electrical assays in Xenopus oocytes expressing 1A/2A NMDA receptor subtype
[2] = target: Glutamate NMDA receptor; Grin1/Grin2b (Rattus norvegicus, UniProt P35439+Q00960); test: Functional antagonism by electrical assays in Xenopus oocytes expressing the 1A/2B NMDA receptor
[3] = target: Glutamate NMDA receptor; Grin1/Grin2c (Rattus norvegicus, UniProt P35439+Q00961); test: Functional antagonism by electrical assays in Xenopus oocytes expressing the 1A/2C NMDA receptor
Glutamate NMDA receptor; Grin1/Grin2c, sequence (Q00961 whole entry, other chains not shown): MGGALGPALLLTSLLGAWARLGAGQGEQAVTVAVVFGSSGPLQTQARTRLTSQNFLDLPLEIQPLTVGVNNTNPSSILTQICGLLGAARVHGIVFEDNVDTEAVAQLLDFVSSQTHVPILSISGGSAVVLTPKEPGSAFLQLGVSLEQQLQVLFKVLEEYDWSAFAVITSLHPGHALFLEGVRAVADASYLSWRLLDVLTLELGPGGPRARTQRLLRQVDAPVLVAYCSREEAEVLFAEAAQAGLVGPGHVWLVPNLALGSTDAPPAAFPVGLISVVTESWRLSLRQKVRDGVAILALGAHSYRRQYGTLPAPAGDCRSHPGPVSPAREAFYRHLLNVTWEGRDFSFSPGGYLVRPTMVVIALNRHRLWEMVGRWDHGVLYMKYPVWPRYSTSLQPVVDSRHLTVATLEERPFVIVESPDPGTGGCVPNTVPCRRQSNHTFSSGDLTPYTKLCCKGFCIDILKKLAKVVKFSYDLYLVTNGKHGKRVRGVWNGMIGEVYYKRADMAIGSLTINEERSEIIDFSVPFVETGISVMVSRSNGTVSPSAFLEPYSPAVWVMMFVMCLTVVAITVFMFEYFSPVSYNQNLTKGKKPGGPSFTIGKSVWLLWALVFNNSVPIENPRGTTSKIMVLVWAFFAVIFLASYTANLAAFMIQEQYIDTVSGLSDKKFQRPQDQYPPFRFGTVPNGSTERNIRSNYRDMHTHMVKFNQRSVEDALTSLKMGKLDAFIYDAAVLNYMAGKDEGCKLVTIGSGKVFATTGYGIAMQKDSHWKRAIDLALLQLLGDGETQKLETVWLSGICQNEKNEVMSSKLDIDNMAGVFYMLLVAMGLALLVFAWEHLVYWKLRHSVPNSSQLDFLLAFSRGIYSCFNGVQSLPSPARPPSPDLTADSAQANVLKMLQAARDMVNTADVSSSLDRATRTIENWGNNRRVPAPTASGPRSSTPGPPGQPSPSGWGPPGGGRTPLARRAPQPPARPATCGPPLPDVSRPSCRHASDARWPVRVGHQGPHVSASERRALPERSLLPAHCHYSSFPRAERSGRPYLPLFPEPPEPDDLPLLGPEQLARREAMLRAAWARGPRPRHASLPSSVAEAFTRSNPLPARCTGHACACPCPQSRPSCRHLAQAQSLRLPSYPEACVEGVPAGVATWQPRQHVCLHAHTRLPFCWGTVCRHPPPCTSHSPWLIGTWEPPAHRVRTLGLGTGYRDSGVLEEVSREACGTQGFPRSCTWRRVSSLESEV

Glutamate NMDA receptor; Grin1/Grin2a, sequence (Q00959 whole entry, other chains not shown): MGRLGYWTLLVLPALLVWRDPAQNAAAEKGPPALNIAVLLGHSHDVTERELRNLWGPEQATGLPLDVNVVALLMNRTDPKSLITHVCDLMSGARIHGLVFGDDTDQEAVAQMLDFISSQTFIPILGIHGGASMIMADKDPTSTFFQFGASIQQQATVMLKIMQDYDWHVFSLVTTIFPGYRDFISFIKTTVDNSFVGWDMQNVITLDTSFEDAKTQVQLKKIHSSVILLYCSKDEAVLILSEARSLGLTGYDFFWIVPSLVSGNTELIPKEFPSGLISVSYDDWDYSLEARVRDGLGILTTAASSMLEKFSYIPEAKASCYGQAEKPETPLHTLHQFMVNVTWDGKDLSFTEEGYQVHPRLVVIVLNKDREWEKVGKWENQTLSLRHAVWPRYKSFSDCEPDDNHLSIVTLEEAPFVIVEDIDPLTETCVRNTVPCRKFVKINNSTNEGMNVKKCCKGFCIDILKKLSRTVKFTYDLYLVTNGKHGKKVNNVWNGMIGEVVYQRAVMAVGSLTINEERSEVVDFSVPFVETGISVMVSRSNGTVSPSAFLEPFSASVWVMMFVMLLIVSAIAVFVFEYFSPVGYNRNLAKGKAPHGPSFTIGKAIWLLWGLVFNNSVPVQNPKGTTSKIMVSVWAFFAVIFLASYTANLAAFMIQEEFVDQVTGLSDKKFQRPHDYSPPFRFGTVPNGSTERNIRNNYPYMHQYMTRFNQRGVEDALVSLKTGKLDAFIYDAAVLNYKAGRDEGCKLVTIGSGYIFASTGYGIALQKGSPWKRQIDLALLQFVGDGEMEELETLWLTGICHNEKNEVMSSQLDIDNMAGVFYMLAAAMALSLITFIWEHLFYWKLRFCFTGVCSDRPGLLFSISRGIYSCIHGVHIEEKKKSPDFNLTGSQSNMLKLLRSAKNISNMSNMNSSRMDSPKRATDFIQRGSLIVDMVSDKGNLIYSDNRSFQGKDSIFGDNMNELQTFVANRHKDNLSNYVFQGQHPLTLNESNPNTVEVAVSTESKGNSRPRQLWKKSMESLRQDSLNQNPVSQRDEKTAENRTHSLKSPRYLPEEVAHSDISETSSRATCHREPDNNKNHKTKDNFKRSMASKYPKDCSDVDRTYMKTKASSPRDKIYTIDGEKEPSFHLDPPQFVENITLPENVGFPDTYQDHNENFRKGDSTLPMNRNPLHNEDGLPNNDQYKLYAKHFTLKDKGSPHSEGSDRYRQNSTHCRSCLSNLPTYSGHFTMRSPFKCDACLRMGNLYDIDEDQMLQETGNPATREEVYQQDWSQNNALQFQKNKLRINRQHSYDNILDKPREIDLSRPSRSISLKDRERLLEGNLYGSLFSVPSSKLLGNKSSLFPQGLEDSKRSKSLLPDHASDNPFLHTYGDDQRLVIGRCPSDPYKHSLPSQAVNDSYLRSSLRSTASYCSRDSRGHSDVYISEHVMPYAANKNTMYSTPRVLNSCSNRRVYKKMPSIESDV
Glutamate NMDA receptor; Grin1/Grin2b, sequence (Q00960 whole entry, other chains not shown): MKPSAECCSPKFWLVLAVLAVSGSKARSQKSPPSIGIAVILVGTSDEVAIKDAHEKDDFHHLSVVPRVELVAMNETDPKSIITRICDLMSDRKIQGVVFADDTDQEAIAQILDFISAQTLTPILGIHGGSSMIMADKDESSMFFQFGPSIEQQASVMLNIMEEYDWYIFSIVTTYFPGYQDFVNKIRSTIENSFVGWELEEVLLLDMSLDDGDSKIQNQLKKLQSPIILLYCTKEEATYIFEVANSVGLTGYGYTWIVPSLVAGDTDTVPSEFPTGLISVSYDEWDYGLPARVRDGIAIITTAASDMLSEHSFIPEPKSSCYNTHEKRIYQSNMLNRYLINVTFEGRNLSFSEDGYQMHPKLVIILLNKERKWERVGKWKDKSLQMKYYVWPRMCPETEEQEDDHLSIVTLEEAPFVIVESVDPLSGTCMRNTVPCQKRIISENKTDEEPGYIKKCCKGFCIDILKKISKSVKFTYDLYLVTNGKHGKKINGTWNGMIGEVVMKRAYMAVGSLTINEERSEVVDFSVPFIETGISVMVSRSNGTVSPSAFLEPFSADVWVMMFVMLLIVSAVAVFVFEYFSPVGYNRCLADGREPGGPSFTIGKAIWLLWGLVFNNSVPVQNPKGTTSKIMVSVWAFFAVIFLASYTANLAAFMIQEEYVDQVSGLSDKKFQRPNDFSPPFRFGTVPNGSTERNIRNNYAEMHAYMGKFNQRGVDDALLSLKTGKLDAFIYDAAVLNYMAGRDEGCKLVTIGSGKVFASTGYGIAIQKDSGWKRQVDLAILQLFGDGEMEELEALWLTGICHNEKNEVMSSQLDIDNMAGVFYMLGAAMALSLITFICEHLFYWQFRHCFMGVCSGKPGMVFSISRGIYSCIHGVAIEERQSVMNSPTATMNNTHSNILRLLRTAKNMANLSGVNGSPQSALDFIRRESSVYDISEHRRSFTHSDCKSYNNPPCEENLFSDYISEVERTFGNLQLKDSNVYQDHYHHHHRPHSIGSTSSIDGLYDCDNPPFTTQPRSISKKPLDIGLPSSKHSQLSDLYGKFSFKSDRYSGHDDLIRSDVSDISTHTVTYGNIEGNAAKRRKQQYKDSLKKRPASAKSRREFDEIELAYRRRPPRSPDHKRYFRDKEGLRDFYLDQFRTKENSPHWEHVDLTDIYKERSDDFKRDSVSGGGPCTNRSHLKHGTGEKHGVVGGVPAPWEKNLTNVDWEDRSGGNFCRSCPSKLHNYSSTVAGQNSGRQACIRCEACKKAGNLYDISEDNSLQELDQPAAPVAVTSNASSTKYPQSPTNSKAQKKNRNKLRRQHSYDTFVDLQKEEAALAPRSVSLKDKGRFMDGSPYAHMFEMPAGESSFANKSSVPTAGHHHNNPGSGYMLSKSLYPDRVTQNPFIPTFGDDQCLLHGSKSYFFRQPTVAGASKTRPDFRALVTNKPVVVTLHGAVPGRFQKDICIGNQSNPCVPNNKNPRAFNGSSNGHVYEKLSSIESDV

| IC50 [1] [µM] | IC50 [2] [µM] | IC50 [3] [µM] | Structure (SMILES) |
| --- | --- | --- | --- |
| 15 | 0.043 | 65 | Oc1ccc(CCNCCCCc2ccccc2)cc1 |
| > 100 | 3.7 | > 100 | Oc1ccc(CCOCCCCc2ccccc2)cc1 |
| 12 | 0.008 | 39 | Oc1ccc(CCNCCCCCc2ccccc2)cc1 |
| 46 | 3.5 | 36 | c1ccc(CCCCNCCc2ccccc2)cc1 |
| > 100 | 7.3 | > 100 | c1ccc(CCCNCCc2ccccc2)cc1 |
| 27 | 0.3 | 88 | CCN(CCCCc1ccccc1)CCc1ccc(O)cc1 |
| 26 | 0.096 | > 100 | Oc1ccc(CCNCCCc2ccccc2)cc1 |
| 18 | 0.045 | 39 | Oc1ccc(CCCNCCCCCc2ccccc2)cc1 |
| 17 | 0.035 | 30 | Oc1ccc(CCNCCCCCCc2ccccc2)cc1 |
| 18 | 0.015 | 48 | Oc1ccc(CCCNCCCCc2ccccc2)cc1 |

| Structure (SMILES) | IC50 [1] [µM] | IC50 [2] [µM] | IC50 [3] [µM] |
| --- | --- | --- | --- |
| C[C@H](CCc1ccccc1)N[C@H](C)[C@@H](O)c1ccc(O)cc1 | – | 0.18 | 42 |
| Oc1ccc(CCN2CCC(Cc3ccccc3)CC2)cc1 | 57 | 0.2 | > 100 |
| c1ccc(CCN2CCC(Cc3ccccc3)CC2)cc1 | > 100 | 1.1 | > 100 |
